The assay deals with MyoF system [differentiated lung myofibroblasts+(TNFα and TGFβ)]. The assay is described as follows: BioMAP MyoF system. It counts as cell-based, Human. An excerpt: In this study LMW-DS was characterized by profiling in the BioMAP® Diversity PLUS panel. The BioMAP® panel consists of human primary cell-based systems designed to model different aspects of the human body in an in vitro format. The 12 systems in the BioMAP® Diversity PLUS panel (Table 32) allow test agent characterization in an unbiased way across a broad set of systems modeling various human disease states. The BioMA®P systems are constructed with one or more primary cell types from healthy human donors, with stimuli, such as cytokines or growth factors, added to capture relevant signaling networks that naturally occur in human tissue or pathological conditions. […]
Systems are derived from either single cell types or co-culture systems. […] Test agents prepared in either DMSO (small molecules; final concentration 0.1%) or PBS (biologics) are added at the indicated concentrations 1-hr before stimulation, and remain in culture for 24-hrs or as otherwise indicated (48-hrs, MyoF system; 72-hrs, BT system (soluble readouts); 168-hrs, BT system (secreted IgG)). […] Soluble factors from supernatants are quantified using either HTRF® detection, bead-based multiplex immunoassay or capture ELISA. Overt adverse effects of test agents on cell proliferation and viability (cytotoxicity) are detected by sulforhodamine B (SRB) staining, for adherent cells, and alamarBlue® reduction for cells in suspension. […]

In the case of “low molecular weight dextran sulfate [LMW-DS]”, the biomarker activities modulated result was “merely IL-8”. In addition, the Increased biomarker activity entry (MyoF system) is reported as “IL-8”.

Source of the values: patent US11534457B2, “Use of dextran sulfate” (priority 2017, dated 2022).
